Laboratory results from patent US8183238B2, “Bicyclic and tricyclic compounds as KAT II inhibitors” (priority 2009, dated 2012).
Where a name gives a salt, the structure may show the parent alone.

The molecules below were run against human KAT II (hKAT II) enzyme (Homo sapiens, UniProt Q8N5Z0) (assay: KAT II Inhibition Spectra Assay). Conditions: Table 6; hKAT II, decrease in OD370, 37° C., 15-20 h; read-out: KATII IC50.
Assay type: biochemical
Method: Formation of kynurenic acid (KYNA) is indirectly assessed by a decrease in light absorbance at 370 nm (OD370) as the L-kynurenine (KYN) substrate is converted by the human KAT II (hKAT II) enzyme into KYNA. An inhibitor would therefore inhibit the decrease in OD370.
The protocol was performed by placing the following reagents into a Costar 384 well black plate (30 μL total assay volume/well): • 10 μL of 3× concentrated compound; • 10 μL of 3× concentrated substrate mix (BGG (Sigma G-5009); 3 mM L-Kynurenine in 150 mM Tris Acetate (Sigma K3750); 3 mM α-ketoglutaric acid in 150 mM Tris Acetate (Sigma K2010); and 210 μM pyridoxal 5-phosphate (PLP) in 150 mM Tris Acetate (Sigma 9255)); and • 10 μL of 3× concentrated enzyme (15 nM enzyme in 150 mM Tris Acetate with 0.3% bovine serum).
Plates were sealed and incubated at 37° C. for 15-20 h before reading OD370 on a SpectraMax Plus plate reader. IC50s were generated by comparing the efficacy of compounds across a concentration range to inhibit a reduction in the OD370 value relative to assay wells with DMSO added in place of concentrated compound.

human KAT II (hKAT II) enzyme, sequence (Q8N5Z0 30-425): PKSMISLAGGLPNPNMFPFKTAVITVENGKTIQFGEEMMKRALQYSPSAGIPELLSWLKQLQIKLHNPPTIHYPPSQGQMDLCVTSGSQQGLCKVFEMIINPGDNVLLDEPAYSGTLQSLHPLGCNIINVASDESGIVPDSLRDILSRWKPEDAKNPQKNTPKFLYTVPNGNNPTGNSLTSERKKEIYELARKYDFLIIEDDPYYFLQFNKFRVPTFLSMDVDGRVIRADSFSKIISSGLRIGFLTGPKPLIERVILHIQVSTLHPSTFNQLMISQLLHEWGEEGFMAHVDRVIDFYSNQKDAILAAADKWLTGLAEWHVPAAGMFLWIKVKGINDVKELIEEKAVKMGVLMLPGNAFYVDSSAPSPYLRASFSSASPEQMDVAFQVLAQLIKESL

Compound | IC50 [nM]
Cc1ncccc1Oc1ccc2c(c1)CC(N)C(=O)N2O (stereo not shown) [Example 87] | 40.9
Cc1ccc(Oc2ccc3c(c2)CC(N)C(=O)N3O)cn1 (stereo not shown) [Example 88] | 20.9
NC1Cc2cc(Oc3cc(F)ccc3F)ccc2N(O)C1=O (stereo not shown) [Example 89] | 36.4
N[C@H]1Cc2cccc(-c3cccnc3C(F)(F)F)c2N(O)C1=O [Example 90] | 355
COc1ccc(Oc2ccc3c(c2)CC(N)C(=O)N3O)cc1 (stereo not shown) [Example 91] | 36.2
NC1Cc2cc(Oc3ccccn3)ccc2N(O)C1=O (stereo not shown) [Example 92] | 51.3
NC1Cc2cc(Oc3cccc(C(F)(F)F)c3)ccc2N(O)C1=O (stereo not shown) [Example 93] | 35.6
NC1Cc2cc(Oc3cccc(OC(F)(F)F)c3)ccc2N(O)C1=O (stereo not shown) [Example 94] | 43.9
NC1Cc2cc(Oc3cccnc3)ccc2N(O)C1=O (stereo not shown) [Example 95] | 35.9
N[C@H]1Cc2cccc(OCC(F)(F)F)c2N(O)C1=O [Example 96] | 49.6
N[C@H]1Cc2cccc(-c3ccccc3)c2N(O)C1=O [Example 97] | 313
Cc1ccc(Oc2ccc3c(c2)CC(N)C(=O)N3O)cc1 (stereo not shown) [Example 98] | 31.9
N#Cc1ccc(Oc2ccc3c(c2)CC(N)C(=O)N3O)cc1 (stereo not shown) [Example 99] | 19.8
NC1Cc2cc(Oc3ccncc3)ccc2N(O)C1=O (stereo not shown) [Example 100] | 103
NC1Cc2cc(Oc3cccc(Cl)c3)ccc2N(O)C1=O (stereo not shown) [Example 101] | 39.7
NC1Cc2cc(Oc3ccc(C(F)(F)F)cc3)ccc2N(O)C1=O (stereo not shown) [Example 102] | 68.6
NC1Cc2cc(Oc3ccc(OC(F)(F)F)cc3)ccc2N(O)C1=O (stereo not shown) [Example 103] | 77.5
COc1cc(Cl)c2c(c1)N(O)C(=O)[C@@H](N)C2 [Example 104] | 307
NC1Cc2cc(Oc3ccc(Cl)cc3)ccc2N(O)C1=O (stereo not shown) [Example 105] | 68.1
NC1Cc2cc(Oc3cccc(F)c3)ccc2N(O)C1=O (stereo not shown) [Example 106] | 49.2
NC1Cc2cc(Oc3ccccc3F)ccc2N(O)C1=O (stereo not shown) [Example 107] | 56.7

Compound | IC50 [nM]
NC1Cc2cc(Oc3ccc(F)cc3)ccc2N(O)C1=O (stereo not shown) [Example 108] | 70.1
N[C@H]1Cc2c(F)ccc(Cl)c2N(O)C1=O [Example 109] | 288
CCc1cccc2c1N(O)C(=O)[C@@H](N)C2 [Example 110] | 983
N[C@H]1Cc2c(ccc(Oc3ccccc3)c2F)N(O)C1=O [Example 111] | 45.2
N[C@H]1Cc2cc(C3CCOCC3)ccc2N(O)C1=O [Example 112] | 49.3
N[C@H]1Cc2cc(Cl)cc(Cl)c2N(O)C1=O [Example 113] | 301
N[C@H]1Cc2c(ccc(F)c2F)N(O)C1=O [Example 114] | 37
N[C@H]1Cc2cc(Cl)c(Cl)cc2N(O)C1=O [Example 115] | 52.7
N[C@H]1Cc2c(ccc(C3CC3)c2F)N(O)C1=O [Example 116] | 51.9
N[C@H]1Cc2c(ccc(Cl)c2F)N(O)C1=O [Example 117] | 53.7
COc1cccc2c1N(O)C(=O)C(N)C2 (stereo not shown) [Example 118] | 1270
N[C@H]1Cc2cccc(C(F)F)c2N(O)C1=O [Example 119] | 41.1
N[C@H]1Cc2cc(F)cc(F)c2N(O)C1=O [Example 120] | 61.9
N[C@H]1Cc2cc(Oc3ccc(Cl)cc3)cnc2N(O)C1=O [Example 124] | 35.1
COc1cccc(Cc2cc3c(cc2OC)N(O)C(=O)[C@@H](N)C3)c1 [Example 125] | 17.2
COc1cc2c(cc1Cc1cccc(C#N)c1)C[C@H](N)C(=O)N2O [Example 126] | 30.9
N[C@H]1Cc2cc(Cc3ccccc3)cnc2N(O)C1=O [Example 127] | 28.2
Cc1nc2c(cc1Cc1ccccc1)C[C@H](N)C(=O)N2O [Example 128] | 25.5
N#Cc1cccc(Oc2cnc3c(c2)C[C@H](N)C(=O)N3O)c1 [Example 129] | 49.1
N[C@H]1Cc2ccncc2N(O)C1=O [Example 130] | 1570
N[C@H]1Cc2cc(-c3cccc(OC(F)(F)F)c3)ccc2N(O)C1=O [Example 131, (3S)-3-amino-1-hydroxy-6-[3-(trifluoromethoxy)phenyl]-3,4-dihydroquinolin-2(1H)-one, trifluoroacetate salt] | 246

Compound | IC50 [nM]
N[C@H]1Cc2cc(-c3ccccc3OC(F)(F)F)ccc2N(O)C1=O [Example 132, (3S)-3-amino-1-hydroxy-6-[2-(trifluoromethoxy)phenyl]-3,4-dihydroquinolin-2(1H)-one, trifluoroacetate salt] | 121
N[C@H]1Cc2cc(-c3cc(F)ccc3F)ccc2N(O)C1=O [Example 133, (3S)-3-amino-6-(2,5-difluorophenyl)-1-hydroxy-3,4-dihydroquinolin-2(1H)-one, trifluoroacetate salt] | 86.6
COc1ccc(-c2ccc3c(c2)C[C@H](N)C(=O)N3O)cc1C [Example 134, (3S)-3-amino-1-hydroxy-6-(4-methoxy-3-methylphenyl)-3,4-dihydroquinolin-2(1H)-one, trifluoroacetate salt] | 199
Cc1ccccc1-c1ccc2c(c1)C[C@H](N)C(=O)N2O [Example 135, (3S)-3-amino-1-hydroxy-6-(2-methylphenyl)-3,4-dihydroquinolin-2(1H)-one, trifluoroacetate salt] | 116
N[C@H]1Cc2cc(-c3ccccc3F)ccc2N(O)C1=O [Example 136, (3S)-3-amino-6-(2-fluorophenyl)-1-hydroxy-3,4-dihydroquinolin-2(1H)-one, trifluoroacetate salt] | 129
COc1ccc(-c2ccc3c(c2)C[C@H](N)C(=O)N3O)c(C)c1 [Example 137, (3S)-3-amino-1-hydroxy-6-(4-methoxy-2-methylphenyl)-3,4-dihydroquinolin-2(1H)-one, trifluoroacetate salt] | 69
N[C@H]1Cc2cc(-c3ccc4c(c3)CCO4)ccc2N(O)C1=O [Example 138, (3S)-3-amino-6-(2,3-dihydro-1-benzofuran-5-yl)-1-hydroxy-3,4-dihydroquinolin-2(1H)-one, trifluoroacetate salt] | 156
N[C@H]1Cc2cc(-c3cccc(F)c3)ccc2N(O)C1=O [Example 139, (3S)-3-amino-6-(3-fluorophenyl)-1-hydroxy-3,4-dihydroquinolin-2(1H)-one, trifluoroacetate salt] | 66.1
N[C@H]1Cc2cc(-c3ccc(Cl)cc3)ccc2N(O)C1=O [Example 140, (3S)-3-amino-6-(4-chlorophenyl)-1-hydroxy-3,4-dihydroquinolin-2(1H)-one, trifluoroacetate salt] | 252
CCOc1ccccc1-c1ccc2c(c1)C[C@H](N)C(=O)N2O [Example 141, (3S)-3-amino-6-(2-ethoxyphenyl)-1-hydroxy-3,4-dihydroquinolin-2(1H)-one, trifluoroacetate salt] | 283
N[C@H]1Cc2cc(-c3ccc(F)cc3)ccc2N(O)C1=O [Example 142, (3S)-3-amino-6-(4-fluorophenyl)-1-hydroxy-3,4-dihydroquinolin-2(1H)-one, trifluoroacetate salt] | 102
N[C@H]1Cc2cc(-c3cccc(Cl)c3)ccc2N(O)C1=O [Example 143, (3S)-3-amino-6-(3-chlorophenyl)-1-hydroxy-3,4-dihydroquinolin-2(1H)-one, trifluoroacetate salt] | 96
N[C@H]1Cc2cc(-c3cccc(C(F)(F)F)c3)ccc2N(O)C1=O [Example 144, (3S)-3-amino-1-hydroxy-6-[3-(trifluoromethyl)phenyl]-3,4-dihydroquinolin-2(1H)-one, trifluoroacetate salt] | 145
N[C@H]1Cc2cc(-c3cccc(Cl)c3Cl)ccc2N(O)C1=O [Example 145, (3S)-3-amino-6-(2,3-dichlorophenyl)-1-hydroxy-3,4-dihydroquinolin-2(1H)-one, trifluoroacetate salt] | 179
Cc1cccc(-c2ccc3c(c2)C[C@H](N)C(=O)N3O)c1 [Example 146, (3S)-3-amino-1-hydroxy-6-(3-methylphenyl)-3,4-dihydroquinolin-2(1H)-one, trifluoroacetate salt] | 78.6
N[C@H]1Cc2cc(-c3ccc(F)cc3F)ccc2N(O)C1=O [Example 147, (3S)-3-amino-6-(2,4-difluorophenyl)-1-hydroxy-3,4-dihydroquinolin-2(1H)-one, trifluoroacetate salt] | 75.6
N[C@H]1Cc2cc(-c3c(F)cccc3F)ccc2N(O)C1=O [Example 148, (3S)-3-amino-6-(2,6-difluorophenyl)-1-hydroxy-3,4-dihydroquinolin-2(1H)-one, trifluoroacetate salt] | 76.1
CCc1ccccc1-c1ccc2c(c1)C[C@H](N)C(=O)N2O [Example 149, (3S)-3-amino-6-(2-ethylphenyl)-1-hydroxy-3,4-dihydroquinolin-2(1H)-one, trifluoroacetate salt] | 118
N[C@H]1Cc2cc(-c3ccccc3)ccc2N(O)C1=O [Example 150, (3S)-3-amino-1-hydroxy-6-phenyl-3,4-dihydroquinolin-2(1H)-one, trifluoroacetate salt] | 96.7
